Where a name gives a salt, the structure may show the parent alone.
What was measured:
hamster α1b-adrenoceptor = target: T1, hamster α1b-adrenoceptor (Mesocricetus auratus, UniProt P18841); test: [3H]Prazosin binding, hamster α1b-adrenoceptor in COS-7 cell membranes; conditions: COS-7 membranes, read-out: Affinity (Ki) α1b, animal cloned receptors
T1 construct: expressed in transfected cells; host or cells: COS-7 cells (transient), membranes
T1 sequence (P18841 1-515): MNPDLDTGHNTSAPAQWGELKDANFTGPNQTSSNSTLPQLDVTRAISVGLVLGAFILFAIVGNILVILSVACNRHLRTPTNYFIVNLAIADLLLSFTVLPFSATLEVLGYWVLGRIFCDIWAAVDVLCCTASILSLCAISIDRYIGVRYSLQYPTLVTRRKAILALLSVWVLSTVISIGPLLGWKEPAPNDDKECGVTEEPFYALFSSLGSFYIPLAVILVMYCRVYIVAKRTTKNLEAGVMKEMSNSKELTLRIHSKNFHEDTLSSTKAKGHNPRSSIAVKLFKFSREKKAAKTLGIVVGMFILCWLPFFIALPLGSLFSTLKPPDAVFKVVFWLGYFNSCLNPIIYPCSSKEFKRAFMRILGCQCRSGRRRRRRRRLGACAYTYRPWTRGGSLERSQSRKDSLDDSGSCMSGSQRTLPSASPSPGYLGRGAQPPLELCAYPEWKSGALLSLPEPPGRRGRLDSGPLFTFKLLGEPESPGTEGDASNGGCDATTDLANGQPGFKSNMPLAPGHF
Experimental: The incubation was stopped by addition of ice-cold Tris buffer and rapid filtration through 0.2% polyethyleneimine pretreated Whatman GF/B or Schleicher & Schuell GF52 filters.
(§1) Data are expressed as mean Ki. All patents and other references cited herein are incorporated by reference in their entirety.

human α1d-adrenoceptor = target: T2, human α1d-adrenoceptor (Homo sapiens, UniProt P25100); test: [3H]Prazosin binding, cloned human α1d-adrenoceptor in CHO cell membranes; conditions: read-out: Affinity (Ki) α1d, human cloned receptors
T2 construct: expressed in transfected cells
T2 sequence (P25100 1-572): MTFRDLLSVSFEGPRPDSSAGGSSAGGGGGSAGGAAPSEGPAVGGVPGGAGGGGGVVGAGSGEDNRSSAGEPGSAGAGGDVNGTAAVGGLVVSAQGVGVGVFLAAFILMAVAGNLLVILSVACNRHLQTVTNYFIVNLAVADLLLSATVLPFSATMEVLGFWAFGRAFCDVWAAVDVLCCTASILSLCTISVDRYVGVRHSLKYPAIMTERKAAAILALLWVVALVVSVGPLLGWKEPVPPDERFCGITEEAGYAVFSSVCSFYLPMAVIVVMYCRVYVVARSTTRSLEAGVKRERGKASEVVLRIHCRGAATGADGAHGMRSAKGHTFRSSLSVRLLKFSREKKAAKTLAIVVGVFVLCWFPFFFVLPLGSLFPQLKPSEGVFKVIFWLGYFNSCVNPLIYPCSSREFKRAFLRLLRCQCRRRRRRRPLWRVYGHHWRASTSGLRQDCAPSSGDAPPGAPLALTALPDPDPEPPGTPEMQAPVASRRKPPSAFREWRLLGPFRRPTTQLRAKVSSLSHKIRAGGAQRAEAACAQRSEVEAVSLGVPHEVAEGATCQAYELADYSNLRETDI
Experimental: (§2) Binding to cloned human α1-adrenoceptor subtypes was performed in membranes from CHO cells (Chinese hamster ovary cells) transfected by electroporation with DNA expressing the gene encoding each α1-adrenoceptor subtype. […] The incubation was stopped by addition of ice-cold Tris buffer and rapid filtration through 0.2% polyethyleneimine-pretreated Whatman GF/B or Schleicher & Schuell GF52 filters.
as §1

human α1a-adrenoceptor = target: T3, human α1a-adrenoceptor (Homo sapiens, UniProt P35348); test: biochemical
T3 sequence (P35348 1-466): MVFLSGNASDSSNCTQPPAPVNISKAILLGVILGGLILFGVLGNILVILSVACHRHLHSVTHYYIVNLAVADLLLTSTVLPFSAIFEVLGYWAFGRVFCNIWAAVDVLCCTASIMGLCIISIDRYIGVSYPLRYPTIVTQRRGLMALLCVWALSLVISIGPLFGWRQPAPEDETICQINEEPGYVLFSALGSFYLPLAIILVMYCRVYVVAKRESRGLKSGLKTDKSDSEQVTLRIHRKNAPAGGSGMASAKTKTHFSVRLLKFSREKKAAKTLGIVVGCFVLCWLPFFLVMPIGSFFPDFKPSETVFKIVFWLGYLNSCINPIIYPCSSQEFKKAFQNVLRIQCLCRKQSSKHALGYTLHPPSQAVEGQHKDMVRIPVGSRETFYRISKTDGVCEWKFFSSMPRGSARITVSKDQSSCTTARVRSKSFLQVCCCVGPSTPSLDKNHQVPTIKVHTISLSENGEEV

human α1b-adrenoceptor = target: T4, human α1b-adrenoceptor (Homo sapiens, UniProt P35368); test: [3H]Prazosin binding, cloned human α1b-adrenoceptor in CHO cell membranes
T4 construct: expressed in transfected cells
T4 sequence (P35368 1-520): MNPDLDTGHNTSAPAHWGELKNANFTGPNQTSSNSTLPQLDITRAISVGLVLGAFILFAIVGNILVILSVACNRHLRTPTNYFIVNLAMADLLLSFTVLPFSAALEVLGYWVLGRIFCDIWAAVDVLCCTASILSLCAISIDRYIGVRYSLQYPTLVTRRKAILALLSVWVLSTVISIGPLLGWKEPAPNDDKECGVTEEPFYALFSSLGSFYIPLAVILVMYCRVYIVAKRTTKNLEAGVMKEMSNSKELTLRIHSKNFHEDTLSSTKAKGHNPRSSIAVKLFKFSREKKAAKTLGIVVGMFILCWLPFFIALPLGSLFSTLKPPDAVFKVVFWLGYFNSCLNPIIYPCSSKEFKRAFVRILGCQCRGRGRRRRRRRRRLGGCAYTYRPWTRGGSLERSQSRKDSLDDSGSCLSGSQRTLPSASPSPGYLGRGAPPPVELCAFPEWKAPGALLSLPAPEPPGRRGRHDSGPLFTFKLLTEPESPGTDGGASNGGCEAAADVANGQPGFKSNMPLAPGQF
Experimental: as §2, §1

anaesthetised dogs = test: Intracavernous and blood pressure recording in dogs
Experimental: Male beagle dogs were anaesthetised with pentobarbital sodium (i.v. Nembutal, 35 mg/kg for induction and 4 mg/kg/h for maintenance) and intubated with an endotracheal cuffed tube to facilitate free ventilation. A collateral of the left femoral vein was cannulated with a PE catheter for infusion of the anaesthetic. Systemic BP was monitored via a Mikro-tip 6F (Millar Instruments) pressure transducer introduced into the aortic arch through the right common carotid artery. ICP was measured by means of a 20-gauge needle placed into the left or right corpus cavernosum and the same needle was used for intracavernous injection of the drugs. The needle was attached to a catheter filled with heparinized saline (25 IU/mL). […] The compounds to be tested were injected intracavernously in a volume of 0.5 ml and, after each injection, the needle was flushed with 0.5 ml of saline. The vehicles for compound dissolution were tested before the first dose of each drug. The compounds were administered in a cumulative way, with a 30-minute interval between doses. ICP (mmHg) was measured at the peak effect after the administration of the compounds. The duration of tumescence (DT, min) was measured from the beginning of the rise of ICP over its basal value up to the return to baseline. The systolic blood pressure and diastolic blood pressure (mmHg) were measured at the peak effect after the administration of compounds, in order to evaluate the effects of the compounds on BP independently from the effects on ICP. Moreover, the systolic blood pressure was measured at the time of maximal ICP value after intracavernous injection, to evaluate the ICP/BP ratios. […] The data were reported as mean ±s.e. of the mean, or percent variation (±s.e.) of the basal values.

SMILES: COc1cc2nc(N3CCN(C(=O)c4ccco4)[C@@H]4CCCC[C@@H]43)nc(N)c2cc1OC [Compound B, 4-Amino-6,7-dimethoxy-2-[(4aR,8aS)-4-(2-furoyl)-cis-octahydro-1-quinoxalinyl]-quinazoline hydrochloride]
- Ki (hamster α1b-adrenoceptor): 0.68 nM
- Ki (human α1d-adrenoceptor): 2.63 nM
- Ki (human α1a-adrenoceptor): 9.43 nM
- Ki (human α1b-adrenoceptor): 0.17 nM
- DBP (anaesthetised dogs; 3 μg/kg intracavernous): 110.7 ± 5.5 mmHg
- DT (duration of tumescence) (anaesthetised dogs; 3 μg/kg intracavernous): 2.5 ± 0.9 min
- ICP (anaesthetised dogs; 3 μg/kg intracavernous): 36.7 ± 2.2 mmHg
- SBP (anaesthetised dogs; 3 μg/kg intracavernous): 151.7 ± 7.3 mmHg
- SBPICP (SBP at the time of maximal ICP value) (anaesthetised dogs; 3 μg/kg intracavernous): 153.3 ± 7.0 mmHg
- increase of ICP in comparison with basal ICP values (anaesthetised dogs; 3 μg/kg intracavernous): 13.7 mmHg
- DBP (anaesthetised dogs; 30 μg/kg intracavernous): 107.3 ± 4.2 mmHg
- DT (duration of tumescence) (anaesthetised dogs; 30 μg/kg intracavernous): 4.3 ± 2.0 min
- ICP (anaesthetised dogs; 30 μg/kg intracavernous): 49.3 ± 14.2 mmHg
- SBP (anaesthetised dogs; 30 μg/kg intracavernous): 150.0 ± 5.9 mmHg
- SBPICP (SBP at the time of maximal ICP value) (anaesthetised dogs; 30 μg/kg intracavernous): 151.0 ± 5.7 mmHg
- DBP (anaesthetised dogs; 100 μg/kg intracavernous): 104.3 ± 4.2 mmHg
- DT (duration of tumescence) (anaesthetised dogs; 100 μg/kg intracavernous): 4.4 ± 1.6 min
- ICP (anaesthetised dogs; 100 μg/kg intracavernous): 52.7 ± 13.0 mmHg
- SBP (anaesthetised dogs; 100 μg/kg intracavernous): 146.0 ± 4.8 mmHg
- SBPICP (SBP at the time of maximal ICP value) (anaesthetised dogs; 100 μg/kg intracavernous): 147.3 ± 5.0 mmHg
- DBP (anaesthetised dogs; 300 μg/kg intracavernous): 98.0 ± 6.9 mmHg
- DT (duration of tumescence) (anaesthetised dogs; 300 μg/kg intracavernous): 3.5 ± 1.1 min
- ICP (anaesthetised dogs; 300 μg/kg intracavernous): 57.3 ± 11.4 mmHg
- SBP (anaesthetised dogs; 300 μg/kg intracavernous): 139.0 ± 6.6 mmHg
- SBPICP (SBP at the time of maximal ICP value) (anaesthetised dogs; 300 μg/kg intracavernous): 147.3 ± 5.7 mmHg
- increase of ICP in comparison with basal ICP values (anaesthetised dogs; 1000 μg/kg (1000 μg given for prazosin, phentolamine) intracavernous): 73.3 mmHg
- DBP (anaesthetised dogs; 1000 μg/kg intracavernous): 81.0 ± 4.3 mmHg
- ICP (anaesthetised dogs; 1000 μg/kg intracavernous): 93.3 ± 6.2 mmHg
- SBP (anaesthetised dogs; 1000 μg/kg intracavernous): 121.7 ± 4.9 mmHg
- SBPICP (SBP at the time of maximal ICP value) (anaesthetised dogs; 1000 μg/kg intracavernous): 135.7 ± 6.8 mmHg
- duration of action compared with reference compounds (anaesthetised dogs; Compound B at the highest dose tested): higher than that of the reference compounds tested
- hypotension on diastolic blood pressure (change) (anaesthetised dogs; highest dose 1000 μg/kg): −31 mmHg
- effect on ICP (in words) (anaesthetised dogs; intracavernous injection): increased ICP in a dose-dependent way

Reference: patent US6953800B2, “Use of selective antagonists of the α1B-adrenergic receptor for improvement of sexual dysfunction” (Recordati S.A. Chemical, priority 1999, dated 2005)
